Source: patent US9028831B2, “Markers for selecting personalized therapies for the treatment of cancer” (Fundació Institut de Recerca Hospital Universitari Vall …, priority 2009, dated 2015)
Entries after “also recorded” stand apart in the source; their conditions may differ. Like-named read-outs stand apart in the source and are kept apart here.

Assays:
parental cells DT40 = assay: Camptothecin-induced apoptosis (subdiploid DNA content, propidium iodide FACS) in parental DT40 cells; assay type: cell-based, Chicken; details: 15-25 nM, 72 hours
Protocol: (§1) Chicken parental B cell line DT40, a sub-line where ATPX was interrupted by means of homologous recombination and a derivative line where APTX was re-introduced in the knock-out cells were used (Abel I, et al., Nature 2006; 443: 713-6). Camptothecin-induced apoptosis was evaluated as has been previously described (Arango D, et al., Cancer Res 2001; 61: 4910-5; Arango D, et al., Br J Cancer 2003; 89: 1757-65). Briefly, 2.5×10^5 cells were seeded by triplicate in 6-well Falcon plates (Becton Dickinson) and were left to adhere for 24 hours before sucking out the medium and changing it with fresh medium containing 0, 15 or 25 nM camptothecin (Calbiochem, San Diego, Calif.). After 72 hours of treatment, both the adhered cells and those that floated were collected, they were washed two times with 2 ml of PBS, and resuspended in PBS containing 50 μg/ml propidium iodide, 0.1% sodium citrate, and 0.1% Triton X-100. The cells were stained overnight at 4° C. and the DNA content was analyzed using a cell separator (FACSCalibur; Becton Dickinson). The cell debris were discarded, and the proportion of cells with subdiploid DNA content typical of apoptotic cells was quantified using WinList 2.0 (Verity Software House, Inc.). All the experiments were carried out in triplicate, and the mean from three independent experiments is shown.

[1] = tested on: APTX knock-out cells DT40; assay: Camptothecin-induced apoptosis in DT40 sub-line with APTX inactivated by homologous recombination; assay type: cell-based, Chicken; details: 15-25 nM, 72 hours, p<0.004
Protocol: as §1

[2] = tested on: DT40 knock-out cells with APTX re-introduced; assay: Camptothecin-induced apoptosis in DT40 knock-out cells with APTX re-introduced; assay type: cell-based, Chicken; details: APTX knock-out DT40 cells with APTX reintroduced, 15-25 nM, 72 hours
Protocol: as §1

[3] = tested on: metastatic colorectal cancer; assay: Response, time to progression and survival of patients receiving irinotecan-based chemotherapy, by tumor aprataxin level; assay type: in vivo, human; details: for time to progression (TTP) median: irinotecan-based treatment
Protocol: A total of 135 patients with metastatic colorectal cancer receiving irinotecan-based chemotherapy in Hospital Universitario Vall d'Hebron were included in the study. The response to the chemotherapeutic treatment was evaluated by means of computerized axial tomography (CAT) and a response was considered complete when the complete disappearance of metastatic lesions was observed. […] A lesion size reduction observed by CAT greater than 30% or an increase above 20% were considered as partial response or progressive disease, respectively. The study was conducted according to the research protocols approved by the Clinical Research Ethics Committee.
After the histological examination of tumor sample sections stained with hematoxylin and eosin and fixed with formalin embedded in paraffin, areas containing a large proportion of tumor cells were selected from the 135 patients. Cores of 1.2 mm of tumor samples from each patient were arranged in duplicate in a new paraffin block using an apparatus for preparing tissue matrices from Beecher Instruments (Beecher Instruments, Silver Spring, Md.).
4 μm unstained sections of the tissue microarrays were mounted on slides coated with 3-aminopropyl-triethoxy-silane (Sigma, St. Louis, Mo., USA). The sections were deparaffinized in xylene and rehydrated by means of a gradual series of alcohol and distilled water. The antigen was recovered with preheated 10 mM pH=6 citrate buffer for 20 minutes at 95° C. For the immunohistochemical analysis, the commercial Novolink polymer detection system was used according to the manufacturer's instructions (Novocastra Laboratories; Newcastle, UK). A rabbit anti-aprataxin polyclonal antibody made against the C-terminus end of human aprataxin was used at a dilution 1:100 (4° C. overnight; Aviva Systems Biology Corp.; San Diego, Calif.). The staining was viewed using a solution of 3,3′-diaminobenzidine (DAB) and the sections were counter stained in Mayer's hematoxylin, washed in water, dehydrated through a series of ethanol solution, clarified in xylene and mounted. The aprataxin levels were evaluated without knowing the clinical data. A semi-quantitative scale from 0 to 3 was used to measure the staining intensity. The absence of aprataxin staining was graded as 0 and the low, moderate and high aprataxin levels were graded as 1, 2, and 3, respectively (see FIG. 2A-D). The mean grading of samples in duplicate was used in subsequent analysis.
Survival curves were plotted using Kaplan and Meier method and the survival differences were evaluated using log-rank test. Cox's proportional hazard model was used to evaluate the simultaneous contribution of the following covariables in the overall survival: sex, age, histological grade, and tumor aprataxin levels. Fisher's exact test, Chi-squared test and Mann-Whitney test were used to evaluate the differences between clinicopathological parameters in patients with high and low aprataxin levels (see Table 1). It was considered that the p values of less than 0.05 indicated statistic significant.

Compound | apoptosis induction (parental cells DT40) | apoptosis induction / sensitization to CPT [1] | CPT resistant phenotype after reintroduction of APTX [2] | Overall survival median [3] | Overall survival median ([3]; Low aprataxin patients) | Overall survival median ([3]; Total patients) | hazard ratio, overall survival ([3]; high vs absent/low aprataxin, 95% CI 1.21-3.63, log-rank p=0.008) | hazard ratio, time to progression ([3]; moderate/high vs absent/low aprataxin, 95% CI 1.04-2.29, log-rank p=0.03) | time to progression (TTP) median ([3]; patients with absence or low aprataxin levels) | time to progression (TTP) median ([3]; patients with moderate or high tumor aprataxin levels)
CC[C@@]1(O)C(=O)OCc2c1cc1n(c2=O)Cc2cc3ccccc3nc2-1 [CPT, camptothecin] | modest apoptosis induction | significantly sensitized; also recorded: significantly increased apoptosis induction | completely reestablished the CPT resistant phenotype; also recorded: fully reestablished the resistant phenotype | – | – | – | – | – | – | –
CCc1c2c(nc3ccc(OC(=O)N4CCC(N5CCCCC5)CC4)cc13)-c1cc3c(c(=O)n1C2)COC(=O)[C@]3(O)CC [irinotecan] | – | – | – | 19 months | 36.7 months | 26.3 months | 2.1 | 1.5 | 9.2 months | 5.5 months
